Test results from publication PMC6364417, “Kinase inhibitor library screening identifies synergistic drug combinations effective in sensitive and resistant melanoma cells” (Journal of Experimental & Clinical Cancer Research : CR, 2019).

Assays:
Test in all cases: Kinase inhibitor library screening, PrestoBlue cell viability, 1 or 10 μM, 72 h
501Mel cells (parental) = details: 72 h
Description: (§1) After 72 h of treatment, cell viability was assessed using the PrestoBlue Cell Viability Reagent (ThermoFisher Scientific). Measurements were performed with the CLARIOstar Monochromator microplate reader (BMG Labtech).
(§2) Kinase inhibitor library screening. […] Each cell line was treated in its sensitive form (parental), and also as 2 resistant derivatives, which were made resistant to either Vemurafenib (XP) or Dabrafenib (GP). Drugs were added at 2 different concentrations, 1 and 10 μM, for 72 h and cell viability was assessed using the PrestoBlue Cell Viability assay. Results are depicted as % viability compared to untreated cells. Each cell line was analyzed at least in duplicate. […] (XLSX 95 kb)

[1] = system: 501Mel-GP cells (Dabrafenib-resistant); details: 72 h
Description: as §1, §2

[2] = system: 501Mel-XP cells (Vemurafenib-resistant); details: 72 h
Description: as §1, §2

A375 cells (parental) = details: for Cell viability in kinase inhibitor library screening, A375 Parental, 10μΜ / Cell viability in kinase inhibitor library screening, A375 Parental, 1μΜ: 72 h
Description: as §1, §2

[3] = system: A375-GP cells (Dabrafenib-resistant)
Description: as §1, §2

[4] = system: A375-XP cells (Vemurafenib-resistant); details: for Cell viability in kinase inhibitor library screening, A375 XP, 1μΜ / Cell viability in kinase inhibitor library screening, A375 XP, 10μΜ: 72 h
Description: as §1, §2

IGR37 cells (parental) = system: IGR37 cells (parental)
Description: as §1, §2

[5] = system: IGR37-GP cells (Dabrafenib-resistant)
Description: as §1, §2

[6] = system: IGR37-XP cells (Vemurafenib-resistant); details: for Cell viability in kinase inhibitor library screening, IGR37 XP, 10μΜ / Cell viability in kinase inhibitor library screening, IGR37 XP, 1μΜ: 72 h; for Cell viability in kinase inhibitor library screening, IGR37 XP, 1μΜ: in %
Description: as §1, §2

Row | Compound | Cell viability in kinase inhibitor library screening, 501Mel Parental, 10μΜ (501Mel cells (parental); 501Mel Parental, in %) | Cell viability in kinase inhibitor library screening, 501Mel GP, 10μΜ ([1]; 501Mel GP, in %) | Cell viability in kinase inhibitor library screening, 501Mel XP, 10μΜ ([2]; 501Mel XP, in %) | Cell viability in kinase inhibitor library screening, A375 Parental, 10μΜ (A375 cells (parental)) | Cell viability in kinase inhibitor library screening, A375 Parental, 1μΜ (A375 cells (parental)) | Cell viability in kinase inhibitor library screening, A375 GP, 10μΜ ([3]; A375 GP, 72 h) | Cell viability in kinase inhibitor library screening, A375 XP, 1μΜ [4] | Cell viability in kinase inhibitor library screening, A375 XP, 10μΜ [4] | Cell viability in kinase inhibitor library screening, IGR37 Parental, 10μΜ (IGR37 cells (parental); IGR37 Parental, 72 h, in %) | Cell viability in kinase inhibitor library screening, IGR37 GP, 10μΜ ([5]; IGR37 GP, 72 h) | Cell viability in kinase inhibitor library screening, IGR37 XP, 10μΜ [6] | Cell viability in kinase inhibitor library screening, IGR37 XP, 1μΜ [6] | further results
1 | O=C(NC[C@H](O)CO)c1ccncc1Nc1ccc(I)cc1F [AS703026] |  |  |  |  |  |  |  |  |  |  |  |  | viability at 1 µM (501Mel cells (parental); Homo sapiens, read-out: cell viability, 501Mel Parental, 1μΜ): 50.1%; viability at 10 µM (501Mel cells (parental); Homo sapiens, read-out: cell viability, 501Mel Parental, 10μΜ): 57.6%; viability at 1 µM ([1]; Homo sapiens, read-out: cell viability, 501Mel GP, 1μΜ): 95.8%; viability at 10 µM ([1]; Homo sapiens, read-out: cell viability, 501Mel GP, 10μΜ): 78.7%; viability at 1 µM ([2]; Homo sapiens, read-out: cell viability, 501Mel XP, 1μΜ): 79.8%; viability at 10 µM ([2]; Homo sapiens, read-out: cell viability, 501Mel XP, 10μΜ): 56%; viability at 1 µM (A375 cells (parental); Homo sapiens, A-375, 72 h, read-out: cell viability, A375 Parental, 1μΜ): 18.5%; viability at 10 µM (A375 cells (parental); Homo sapiens, A-375, 72 h, read-out: cell viability, A375 Parental, 10μΜ): 19.6%; viability at 1 µM ([3]; Homo sapiens, A-375, 72 h, read-out: cell viability, A375 GP, 1μΜ): 18.8%; viability at 10 µM ([3]; Homo sapiens, A-375, 72 h, read-out: cell viability, A375 GP, 10μΜ): 15.8%; viability at 1 µM ([4]; Homo sapiens, A-375, 72 h, read-out: cell viability, A375 XP, 1μΜ): 15.5%; viability at 10 µM ([4]; Homo sapiens, A-375, 72 h, read-out: cell viability, A375 XP, 10μΜ): 9.6%; viability at 1 µM (IGR37 cells (parental); Homo sapiens, IGR-37, 72 h, read-out: cell viability, IGR37 Parental, 1μΜ): 33.3%; viability at 10 µM (IGR37 cells (parental); Homo sapiens, IGR-37, 72 h, read-out: cell viability, IGR37 Parental, 10μΜ): 35.4%; viability at 1 µM ([5]; Homo sapiens, IGR-37, 72 h, read-out: cell viability, IGR37 GP, 1μΜ): 77%; viability at 10 µM ([5]; Homo sapiens, IGR-37, 72 h, read-out: cell viability, IGR37 GP, 10μΜ): 59.4%; viability at 1 µM ([6]; Homo sapiens, IGR-37, 72 h, read-out: cell viability, IGR37 XP, 1μΜ): 52.7%; viability at 10 µM ([6]; Homo sapiens, IGR-37, 72 h, read-out: cell viability, IGR37 XP, 10μΜ): 18.8%
2 | O=C1NC(=O)/C(=C/c2ccc(-c3ccc(F)cc3O)o2)S1 [AS-252424] | 97.9 | 85.7 | 84.7 | 82.9 | 107.2 | 90.3 | 115.1 | 96.7 | 94.5 | 75.1% | 42.3% | 93.7 | Cell viability in kinase inhibitor library screening, 501Mel Parental, 1μΜ (501Mel cells (parental); 501Mel Parental, 1μΜ, in %): 112.3; Cell viability in kinase inhibitor library screening, 501Mel GP, 1μΜ ([1]; 501Mel GP, 1μΜ, in %): 105.9; Cell viability in kinase inhibitor library screening, 501Mel XP, 1μΜ ([2]; 501Mel XP, 1μΜ, in %): 109.3; Cell viability in kinase inhibitor library screening, A375 GP, 1μΜ ([3]; A375 GP, 1μΜ, 72 h): 107.9; Cell viability in kinase inhibitor library screening, IGR37 Parental, 1μΜ (IGR37 cells (parental); IGR37 Parental, 1μΜ, 72 h, in %): 103.0
3 | O=C1NC(=O)/C(=C/c2ccc3c(c2)OC(F)(F)O3)S1 [AS-604850] | 104.4 | 91.8 | 90.1 | 95.5 | 104.7 | 98.8 | 109.0 | 106.1 | 108.6 | 98% | 80.4% | 91.9 | Cell viability in kinase inhibitor library screening, IGR37 GP, 1μΜ ([5]; IGR37 GP, 1μΜ, 72 h, in %): 103.0
